Kd, Activity and Ratio data for 40 molecules are collected here from ChEMBL document CHEMBL5506035, “Discovery of Glutamate Carboxypeptidase III Ligands to Compete the Uptake of [177Lu]Lu-PSMA-617 in Healthy Organs” (J Med Chem, 2024).

The structures appear in SMILES notation. Active and inactive are the calls of the source. No cut-off for these calls is given here.

One may read the Kd as the concentration at which binding is half-saturated.

The target of test [1] is T1, N-acetylated-alpha-linked acidic dipeptidase 2 (Homo sapiens, UniProt Q9Y3Q0). As to the kind of experiment: Displacement of [177Lu]LU-PSMA-617 from human recombinant GCPIII assessed as dissociation constant by fluorescence polarization assay. In general terms: Fluorescence polarisation rises when a labelled molecule tumbles more slowly, as on binding a larger partner.
T1 sequence (Q9Y3Q0 whole entry): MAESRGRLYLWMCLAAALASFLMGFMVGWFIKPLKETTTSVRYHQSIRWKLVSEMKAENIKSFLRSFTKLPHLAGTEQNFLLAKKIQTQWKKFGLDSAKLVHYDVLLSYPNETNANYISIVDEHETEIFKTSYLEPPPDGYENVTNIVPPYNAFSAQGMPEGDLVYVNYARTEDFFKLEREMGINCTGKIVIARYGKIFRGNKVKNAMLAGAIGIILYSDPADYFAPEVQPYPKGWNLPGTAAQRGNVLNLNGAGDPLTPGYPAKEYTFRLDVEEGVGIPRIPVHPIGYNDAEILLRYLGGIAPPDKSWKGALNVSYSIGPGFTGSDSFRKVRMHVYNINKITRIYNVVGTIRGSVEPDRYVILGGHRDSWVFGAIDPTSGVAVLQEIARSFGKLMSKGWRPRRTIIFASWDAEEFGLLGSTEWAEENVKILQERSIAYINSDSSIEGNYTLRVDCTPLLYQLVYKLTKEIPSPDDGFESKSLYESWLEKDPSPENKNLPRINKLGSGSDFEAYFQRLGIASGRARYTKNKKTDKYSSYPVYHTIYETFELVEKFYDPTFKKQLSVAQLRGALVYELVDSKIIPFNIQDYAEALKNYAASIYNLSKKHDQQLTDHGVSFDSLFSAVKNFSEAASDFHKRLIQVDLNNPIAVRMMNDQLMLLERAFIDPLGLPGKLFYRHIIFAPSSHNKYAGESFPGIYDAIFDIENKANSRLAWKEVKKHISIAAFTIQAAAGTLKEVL

Test [2] concerns the target T2, Glutamate carboxypeptidase 2 (Homo sapiens, UniProt Q04609). As to the kind of experiment: Displacement of [177Lu]LU-PSMA-617 from human recombinant PSMA assessed as dissociation constant by fluorescence polarization assay.
Target sequence in this assay (Q04609 whole entry): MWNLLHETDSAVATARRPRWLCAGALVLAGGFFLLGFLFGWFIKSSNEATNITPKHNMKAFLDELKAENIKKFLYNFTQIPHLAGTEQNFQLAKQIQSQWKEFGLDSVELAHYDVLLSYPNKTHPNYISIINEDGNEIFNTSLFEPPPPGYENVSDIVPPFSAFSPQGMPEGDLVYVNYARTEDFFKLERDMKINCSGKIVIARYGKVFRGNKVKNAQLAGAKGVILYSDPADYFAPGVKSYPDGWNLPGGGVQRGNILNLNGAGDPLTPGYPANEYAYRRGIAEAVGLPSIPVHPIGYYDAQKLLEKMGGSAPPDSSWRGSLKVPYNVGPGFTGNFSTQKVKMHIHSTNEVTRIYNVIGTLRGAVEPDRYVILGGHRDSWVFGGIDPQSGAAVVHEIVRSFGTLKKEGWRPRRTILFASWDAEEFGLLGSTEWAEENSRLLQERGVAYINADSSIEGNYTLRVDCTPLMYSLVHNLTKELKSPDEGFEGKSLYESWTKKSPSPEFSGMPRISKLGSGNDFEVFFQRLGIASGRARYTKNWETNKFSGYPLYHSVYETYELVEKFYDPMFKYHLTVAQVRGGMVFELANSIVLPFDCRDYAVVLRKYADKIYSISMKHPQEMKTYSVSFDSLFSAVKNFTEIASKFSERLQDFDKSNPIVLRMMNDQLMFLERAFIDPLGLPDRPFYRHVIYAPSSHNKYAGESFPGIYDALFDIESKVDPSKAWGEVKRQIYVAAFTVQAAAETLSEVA
In test [3] the target is T1, N-acetylated-alpha-linked acidic dipeptidase 2. Briefly: Binding affinity to human recombinant GCPIII assessed as dissociation constant by fluorescence polarization assay.
Test [4] addresses T2, Glutamate carboxypeptidase 2. As to the kind of experiment: Binding affinity to human recombinant PSMA assessed as dissociation constant by fluorescence polarization assay.
Target sequence in this assay (Q04609 whole entry): as above
For test [5] the target is unchanged. Briefly: Displacement of [177Lu]LU-PSMA-617 from PSMA in human salivary gland assessed as residual activity at 10 uM incubated for 1 hr by autoradiography analysis relative to control. The class given is tissue-based.
Target sequence in this assay (Q04609 whole entry, looked up): as the sequence (Q04609 whole entry) above
Test [6] shares this target. Briefly: Displacement of [177Lu]LU-PSMA-617 from human PSMA at 10 to 100 uM incubated for 15 mins by manual size-exclusion chromatography analysis. As to conditions: dose 10-100 µM. For orientation: In gel filtration, larger molecules generally elute earlier.
Target sequence in this assay (Q04609 whole entry, looked up): as the sequence (Q04609 whole entry) above
A further test is filed under the species Homo sapiens. Briefly: Ratio of Kd for binding affinity to human recombinant GCPIII assessed as dissociation constant by fluorescence polarization assay to Kd for binding affinity to human recombinant PSMA assessed as dissociation constant by fluorescence polarization assay.

For the molecule `O=C(NCCCCNC(=O)NCCCC[C@H](NC(=O)[C@@H]1C[C@@H](NC(=O)c2c[nH]nn2)CN1C(=O)c1cnoc1C1CC1)C(=O)O)NCCCC[C@H](NC(=O)[C@@H]1C[C@@H](NC(=O)c2c[nH]nn2)CN1C(=O)c1cnoc1C1CC1)C(=O)O`, the figures for the dissociation constant (Kd) in test [1] and in test [2] were 0.053 µM and 13 µM, respectively.

For the molecule `CC(C)c1nocc1C(=O)N1C[C@H](NC(=O)c2c[nH]nn2)C[C@H]1C(=O)N[C@@H](CCCCNC(=S)Nc1ccc2c(c1)C(=O)OC21c2ccc(O)cc2Oc2cc(O)ccc21)C(=O)O`, the equilibrium dissociation constant (Kd) is 0.03 µM in test [3] and more than 1 µM in test [4].

`COc1ccc(C2=[N+]3C(=Cc4c(C)c(CCC(=O)NCCCC[C@H](NC(=O)[C@@H]5C[C@@H](NC(=O)c6c[nH]nn6)CN5C(=O)c5cnoc5C5CC5)C(=O)O)c(C)n4[B-]3(F)F)C=C2)cc1`: the equilibrium dissociation constant (Kd) is 0.015 µM in test [3] and more than 1 µM in test [4].

For the molecule `NCCCC[C@H](NC(=O)[C@@H]1C[C@@H](NC(=O)c2c[nH]nn2)CN1C(=O)c1c[nH]nn1)C(=O)O`, the Kd in test [1] was 17 µM; in test [2], more than 20 µM.

As for `O=C(N[C@@H]1C[C@@H](C(=O)N[C@@H](CNC(=S)Nc2ccc3c(c2)C(=O)OC32c3ccc(O)cc3Oc3cc(O)ccc32)C(=O)O)N(C(=O)c2cnoc2C2CC2)C1)c1c[nH]nn1`, the figures for the dissociation constant (Kd) in test [3] and in test [4] were 0.0063 µM and more than 1 µM, respectively. Also, the Activity in test [5] came to 44%.

Consider `O=C(N[C@@H]1C[C@@H](C(=O)N[C@@H](CCCCNC(=S)Nc2ccc3c(c2)C(=O)OC32c3ccc(O)cc3Oc3cc(O)ccc32)C(=O)O)N(C(=O)c2cnoc2C2CC2)C1)c1nc[nH]n1`, for which, in test [3], the Kd was more than 0.3 µM.

As to `CC(=O)NCCCC[C@H](NC(=O)[C@@H]1C[C@@H](NC(=O)c2c[nH]nn2)CN1C(=O)c1cnoc1C1CC1)C(=O)O`, the dissociation constant (Kd) in test [1] is 0.041 µM; in test [2], more than 20 µM.

As for `O=C(N[C@@H]1C[C@@H](C(=O)O)N(C(=O)c2cnoc2C2CC2)C1)c1c[nH]nn1`, the dissociation constant Kd in test [1] is 0.3 µM; in test [2] it was more than 20 µM.

`O=C(NCCCC[C@H](NC(=O)[C@@H]1C[C@@H](NC(=O)c2c[nH]nn2)CN1C(=O)c1c[nH]nn1)C(=O)Nc1c[nH]nn1)c1c[nH]nn1`: the dissociation constant (Kd) in test [1] is 0.338 µM; in test [2] it was more than 20 µM.

For the molecule `O=C(N[C@@H]1C[C@@H](C(=O)N[C@@H](CCCCNC(=S)Nc2ccc3c(c2)C(=O)OC32c3ccc(O)cc3Oc3cc(O)ccc32)C(=O)O)N(C(=O)c2c[nH]nn2)C1)c1c[nH]nn1`, the Kd was 0.0048 µM in test [3] and more than 1 µM in test [4].

In the case of `O=C(NCCCC[C@H](NC(=O)[C@@H]1C[C@@H](NC(=O)c2c[nH]nn2)CN1C(=O)c1cnoc1C1CC1)C(=O)O)c1c[nH]nn1`, the dissociation constant (Kd) is 0.012 µM in test [1] and more than 20 µM in test [2].

With `O=C(NC[C@H](NC(=O)[C@@H]1C[C@@H](NC(=O)c2c[nH]nn2)CN1C(=O)c1c[nH]nn1)C(=O)O)c1c[nH]nn1`, the figures for the dissociation constant Kd in test [1] and in test [2] were 0.0015 µM and 0.231 µM, respectively.

Take `O=C(O)CC[C@H](NC(=O)N[C@@H](CCCCNC(=O)[C@H](Cc1ccc2ccccc2c1)NC(=O)[C@H]1CC[C@H](CNC(=O)CN2CCN(CC(=O)O)CCN(CC(=O)O)CCN(CC(=O)O)CC2)CC1)C(=O)O)C(=O)O`: the outcome in test [6] was inactive.

For `CC(C)c1oncc1C(=O)N1C[C@H](NC(=O)c2c[nH]nn2)C[C@H]1C(=O)N[C@@H](CCCCNC(=S)Nc1ccc2c(c1)C(=O)OC21c2ccc(O)cc2Oc2cc(O)ccc21)C(=O)O`, the Kd worked out at 0.0043 µM in test [3] and 0.178 µM in test [4].

For `Cc1[nH]nnc1C(=O)N[C@@H]1C[C@@H](C(=O)N[C@@H](CCCCNC(=S)Nc2ccc3c(c2)C(=O)OC32c3ccc(O)cc3Oc3cc(O)ccc32)C(=O)O)N(C(=O)c2cnoc2C2CC2)C1`, the Kd in test [3] is more than 0.5 µM.

For `NC[C@H](NC(=O)[C@@H]1C[C@@H](NC(=O)c2c[nH]nn2)CN1C(=O)c1c[nH]nn1)C(=O)O`, the Kd was 10 µM in test [1] and more than 20 µM in test [2].

Regarding `O=C1OC2(c3ccc(O)cc3Oc3cc(O)ccc32)c2ccc(NC(=S)NCCCC[C@H](NC(=O)[C@@H]3C[C@@H](n4cc(-c5c[nH]nn5)nn4)CN3C(=O)c3cnoc3C3CC3)C(=O)O)cc21`, the Kd in test [3] was more than 0.3 µM.

As for `CC(=O)NCCCC[C@H](NC(=O)[C@@H]1C[C@@H](NC(=O)c2c[nH]nn2)CN1C(=O)c1cnoc1C1CC1)C(=O)Nc1c[nH]nn1`, the results for the Kd in test [1] and in test [2] were 3.2 µM and more than 20 µM, respectively.

Take `O=C(N[C@@H]1C[C@@H](C(=O)NCCCCCCNC(=S)Nc2ccc3c(c2)C(=O)OC32c3ccc(O)cc3Oc3cc(O)ccc32)N(C(=O)c2cnoc2C2CC2)C1)c1c[nH]nn1`: the Kd in test [3] is 0.007 µM; in test [4] it was 0.048 µM.

As to `CCCCCCNC(=S)Nc1ccc2c(c1)C(=O)OC21c2ccc(O)cc2Oc2cc(O)ccc21`, the Activity in test [5] turned out to be 92%.

`O=C(N[C@@H]1C[C@@H](C(=O)NCCOCCOCCNC(=S)Nc2ccc3c(c2)C(=O)OC32c3ccc(O)cc3Oc3cc(O)ccc32)N(C(=O)c2cnoc2C2CC2)C1)c1c[nH]nn1`: the dissociation constant (Kd) in test [3] came to 0.024 µM; in test [4] it was 0.31 µM.

As for `O=C(N[C@@H]1C[C@@H](C(=O)N[C@H](CCCCNC(=S)Nc2ccc3c(c2)C(=O)OC32c3ccc(O)cc3Oc3cc(O)ccc32)C(=O)O)N(C(=O)c2cnoc2C2CC2)C1)c1c[nH]nn1`, the dissociation constant (Kd) in test [3] is 0.023 µM; in test [4], more than 1 µM.

With `O=C(N[C@@H]1C[C@@H](C(=O)N[C@@H](CCCCNC(=S)Nc2ccc3c(c2)C(=O)OC32c3ccc(O)cc3Oc3cc(O)ccc32)C(=O)O)N(C(=O)c2cnoc2C2CC2)C1)c1c[nH]cn1`, the Kd in test [3] is more than 0.3 µM.

For the molecule `NCCCC[C@H](NC(=O)[C@@H]1C[C@@H](NC(=O)c2c[nH]nn2)CN1C(=O)c1cnoc1C1CC1)C(=O)O`, the equilibrium dissociation constant (Kd) was 13 µM in test [1] and more than 20 µM in test [2].

In the case of `Cn1nncc1C(=O)N[C@@H]1C[C@@H](C(=O)N[C@@H](CCCCNC(=S)Nc2ccc3c(c2)C(=O)OC32c3ccc(O)cc3Oc3cc(O)ccc32)C(=O)O)N(C(=O)c2cnoc2C2CC2)C1`, the Kd in test [3] is more than 0.5 µM.

Regarding `O=C(CCOCCOCCOCCOCCOCCOCCOCCOCCOCCOCCC(=O)NCCCC[C@H](NC(=O)[C@@H]1C[C@@H](NC(=O)c2cnn[nH]2)CN1C(=O)c1cnoc1C1CC1)C(=O)O)NCCCC[C@H](NC(=O)[C@@H]1C[C@@H](NC(=O)c2cnn[nH]2)CN1C(=O)c1cnoc1C1CC1)C(=O)O`, the Kd in test [1] is 0.505 µM; in test [2], more than 20 µM.

With `O=C1OC2(c3ccc(O)cc3Oc3cc(O)ccc32)c2ccc(NC(=S)NCCCC[C@H](NC(=O)[C@@H]3C[C@@H](Cc4c[nH]nn4)CN3C(=O)c3cnoc3C3CC3)C(=O)O)cc21`, the Kd was 0.106 µM in test [3] and more than 1 µM in test [4].

In the case of `O=C(NC[C@H](NC(=O)[C@@H]1C[C@@H](NC(=O)c2c[nH]nn2)CN1C(=O)c1cnoc1C1CC1)C(=O)O)c1c[nH]nn1`, the Kd in test [1] was found to be 0.008 µM; in test [2], 1.3 µM.

On to `COC(=O)[C@H](CCCCNC(=S)Nc1ccc2c(c1)C(=O)OC21c2ccc(O)cc2Oc2cc(O)ccc21)NC(=O)[C@@H]1C[C@@H](NC(=O)c2c[nH]nn2)CN1C(=O)c1cnoc1C1CC1`, for which the Kd in test [3] was found to be 0.012 µM; in test [4], 0.332 µM.

As for `Cn1cc(C(=O)N[C@@H]2C[C@@H](C(=O)N[C@@H](CCCCNC(=S)Nc3ccc4c(c3)C(=O)OC43c4ccc(O)cc4Oc4cc(O)ccc43)C(=O)O)N(C(=O)c3cnoc3C3CC3)C2)nn1`, the Kd in test [3] is more than 0.5 µM.

As to `O=C(Cn1ccnn1)N[C@@H]1C[C@@H](C(=O)N[C@@H](CCCCNC(=S)Nc2ccc3c(c2)C(=O)OC32c3ccc(O)cc3Oc3cc(O)ccc32)C(=O)O)N(C(=O)c2cnoc2C2CC2)C1`, the Kd in test [3] was more than 0.5 µM.

As to `CC(=O)NC[C@H](NC(=O)[C@@H]1C[C@@H](NC(=O)c2c[nH]nn2)CN1C(=O)c1cnoc1C1CC1)C(=O)O`, the Kd is 2 µM in test [1] and more than 20 µM in test [2].

With `CC(=O)N1C[C@H](NC(=O)c2c[nH]nn2)C[C@H]1C(=O)N[C@@H](CCCCNC(=S)Nc1ccc2c(c1)C(=O)OC21c2ccc(O)cc2Oc2cc(O)ccc21)C(=O)O`, the Kd is 0.169 µM in test [3] and more than 1 µM in test [4].

On to `CC(=O)NCCCC[C@H](NC(=O)[C@@H]1C[C@@H](NC(=O)c2c[nH]nn2)CN1C(=O)c1c[nH]nn1)C(=O)O`, for which the Kd in test [1] was 6.4 µM; in test [2], 15 µM.

As for `O=C(NCCCC[C@H](NC(=O)[C@@H]1C[C@@H](NC(=O)c2c[nH]nn2)CN1C(=O)c1c[nH]nn1)C(=O)O)c1c[nH]nn1`, the equilibrium dissociation constant (Kd) was 0.012 µM in test [1] and more than 20 µM in test [2].

As to `N=c1ccc2c(-c3ccc(C(=O)NCCCC[C@H](NC(=O)[C@@H]4C[C@@H](NC(=O)c5c[nH]nn5)CN4C(=O)c4cnoc4C4CC4)C(=O)O)cc3C(=O)O)c3ccc(N)c(S(=O)(=O)O)c3oc-2c1S(=O)(=O)O`, the dissociation constant (Kd) is 0.0045 µM in test [3] and more than 1 µM in test [4].

As to `O=C(N[C@@H](CCCCNC(=S)Nc1ccc2c(c1)C(=O)OC21c2ccc(O)cc2Oc2cc(O)ccc21)C(=O)O)c1c[nH]nn1`, in test [3], the Kd came out at 0.087 µM. Further, the Ratio in the test filed under Homo sapiens is 20.

`CC(=O)NC[C@H](NC(=O)[C@@H]1C[C@@H](NC(=O)c2c[nH]nn2)CN1C(=O)c1c[nH]nn1)C(=O)O`: the values for the dissociation constant (Kd) in test [1] and in test [2] were 0.067 µM and more than 20 µM, respectively.

As for `CC(=O)N[C@@H]1C[C@@H](C(=O)N[C@@H](CCCCNC(=S)Nc2ccc3c(c2)C(=O)OC32c3ccc(O)cc3Oc3cc(O)ccc32)C(=O)O)N(C(=O)c2cnoc2C2CC2)C1`, the dissociation constant Kd in test [3] is more than 2.6 µM.

Consider `O=C(N[C@@H]1C[C@@H](C(=O)N[C@@H](CCCCNC(=S)Nc2ccc3c(c2)C(=O)OC32c3ccc(O)cc3Oc3cc(O)ccc32)C(=O)O)N(C(=O)c2cnoc2-c2ccccc2)C1)c1c[nH]nn1`, for which the results for the Kd in test [3] and in test [4] were 0.0064 µM and 0.023 µM, respectively.
